The record followed here is patent US12171756B2, “NLRP3 modulators” (Innate Tumor Immunity, Inc., priority 2017, dated 2024).

Experiment [1] concerns IL-1β production in PMA-differentiated THP-1 cells. In words: Measurement of IL-1β production in PMA-differentiated THP-1 cells (ELISA, 4 hours). In kind it is cell-based, human. The note with it: Homo sapiens, THP-1, human IL-1β production, assayed using one or more of the described procedures, read-out: NLRP3 hIL1B IC50. In outline: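 THP-1 cells differentiated with PMA (10 μg/ml, 24 h), replated at 1×10^6 cells/ml in RPMI with 2% FBS and exposed to compounds (e.g. 0.1–100 μM, 1% DMSO final) for 4 hours. IL-1β in cell-free supernatant quantified by ELISA against vehicle control.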

For a further experiment, the target named is T1, human TLR7 (Homo sapiens, UniProt Q9NYK1).
T1 construct: host or cells: human HEK-Blue cells (HEK293-derived) co-expressing TLR7 and an NF-kB/AP1-inducible SEAP reporter
T1 sequence (Q9NYK1 27-1049): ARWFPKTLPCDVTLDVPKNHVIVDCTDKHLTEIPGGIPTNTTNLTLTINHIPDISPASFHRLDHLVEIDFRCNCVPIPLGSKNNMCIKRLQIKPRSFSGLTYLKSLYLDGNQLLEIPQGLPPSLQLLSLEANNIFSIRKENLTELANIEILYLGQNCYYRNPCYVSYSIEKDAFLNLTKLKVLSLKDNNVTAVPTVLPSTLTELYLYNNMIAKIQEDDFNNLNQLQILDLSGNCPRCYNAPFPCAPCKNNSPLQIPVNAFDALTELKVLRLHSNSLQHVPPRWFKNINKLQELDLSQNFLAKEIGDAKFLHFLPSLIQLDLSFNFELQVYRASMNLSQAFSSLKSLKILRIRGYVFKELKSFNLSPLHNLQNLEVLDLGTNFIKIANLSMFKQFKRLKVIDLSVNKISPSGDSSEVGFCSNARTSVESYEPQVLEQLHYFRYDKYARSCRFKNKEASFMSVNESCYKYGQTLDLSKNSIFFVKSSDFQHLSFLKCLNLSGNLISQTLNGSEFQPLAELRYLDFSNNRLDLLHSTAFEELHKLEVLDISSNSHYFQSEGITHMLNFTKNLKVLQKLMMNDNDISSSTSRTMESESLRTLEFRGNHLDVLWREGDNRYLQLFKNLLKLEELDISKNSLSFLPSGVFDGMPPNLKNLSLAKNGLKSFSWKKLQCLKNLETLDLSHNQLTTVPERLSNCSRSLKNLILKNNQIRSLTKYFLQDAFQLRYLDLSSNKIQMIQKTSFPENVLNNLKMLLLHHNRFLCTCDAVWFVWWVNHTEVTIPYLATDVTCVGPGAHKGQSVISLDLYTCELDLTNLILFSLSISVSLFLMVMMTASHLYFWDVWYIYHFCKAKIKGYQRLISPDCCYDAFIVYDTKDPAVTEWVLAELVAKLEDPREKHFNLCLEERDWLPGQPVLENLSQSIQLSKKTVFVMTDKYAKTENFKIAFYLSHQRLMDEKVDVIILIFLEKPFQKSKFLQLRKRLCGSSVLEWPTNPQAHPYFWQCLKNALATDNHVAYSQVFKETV
In words: In vitro human TLR7 binding reporter assay (HEK-Blue, NF-kB/AP1-inducible SEAP). In kind it is cell-based. The note with it: HEK-Blue human TLR7 SEAP reporter cells; activity range classes; read-out: TLR7 Agonist EC50. In short, it runs like this:
(§1)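 Cells are seeded and grown for 24 h. Compounds or DMSO are then added and incubated 18 h at 37 °C. Quanti-Blue is added, and SEAP is read after thirty minutes. EC50 values are normalized, with RLU from 50 μM reference standard setting 100% Ymax.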
Background: Reporter assays use an easily measured gene product as a stand-in for the process of interest.

In another experiment the target is T2, human TLR8 (Homo sapiens, UniProt Q9NR97).
T2 construct: host or cells: human HEK-Blue cells (HEK293-derived) co-expressing TLR8 and an NF-kB/AP1-inducible SEAP reporter
T2 sequence (Q9NR97 27-1041): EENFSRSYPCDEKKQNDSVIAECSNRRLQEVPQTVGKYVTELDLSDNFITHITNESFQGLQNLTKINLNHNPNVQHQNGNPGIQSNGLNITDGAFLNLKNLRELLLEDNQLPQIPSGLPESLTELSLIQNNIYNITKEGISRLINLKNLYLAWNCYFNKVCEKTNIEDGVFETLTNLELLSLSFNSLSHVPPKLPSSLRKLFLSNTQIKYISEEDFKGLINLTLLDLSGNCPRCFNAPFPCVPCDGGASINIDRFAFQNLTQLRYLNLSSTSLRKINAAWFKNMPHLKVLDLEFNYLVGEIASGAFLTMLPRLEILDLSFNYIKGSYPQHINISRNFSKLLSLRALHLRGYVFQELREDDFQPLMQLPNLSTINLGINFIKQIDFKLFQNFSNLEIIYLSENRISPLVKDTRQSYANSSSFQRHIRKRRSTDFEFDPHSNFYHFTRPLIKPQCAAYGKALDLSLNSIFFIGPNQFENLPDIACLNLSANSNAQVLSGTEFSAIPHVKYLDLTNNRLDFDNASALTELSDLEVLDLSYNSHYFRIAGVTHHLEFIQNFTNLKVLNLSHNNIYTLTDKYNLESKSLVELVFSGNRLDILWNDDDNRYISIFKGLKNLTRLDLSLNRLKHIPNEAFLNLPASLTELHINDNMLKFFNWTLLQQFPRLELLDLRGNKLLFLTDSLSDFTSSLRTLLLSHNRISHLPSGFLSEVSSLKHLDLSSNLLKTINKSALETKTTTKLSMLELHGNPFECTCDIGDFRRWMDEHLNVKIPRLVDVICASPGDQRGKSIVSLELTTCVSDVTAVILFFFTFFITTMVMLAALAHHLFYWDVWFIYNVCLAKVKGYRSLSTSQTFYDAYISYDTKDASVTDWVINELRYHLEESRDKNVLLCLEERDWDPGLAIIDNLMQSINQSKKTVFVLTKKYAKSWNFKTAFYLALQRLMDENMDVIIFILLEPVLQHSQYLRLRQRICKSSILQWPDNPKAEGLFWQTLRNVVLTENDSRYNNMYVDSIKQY
In words: In vitro human TLR8 binding reporter assay (HEK-Blue, NF-kB/AP1-inducible SEAP). In kind it is cell-based. The note with it: HEK-Blue human TLR8 SEAP reporter cells; activity range classes; read-out: TLR8 Agonist EC50. In short, it runs like this: as §1

The term IC50 denotes the concentration that gives 50% inhibition. A word on the EC50: it is the concentration giving half of the maximal effect.

As to `Nc1cc(N[C@H]2CC[C@@H](O)CC2)c2ccc(-c3ccn[nH]3)cc2n1` [Compound 283], in experiment [1], the IC50 came to 1.7 µM. The EC50 on human TLR7 and on human TLR8 was above 100 µM throughout.

Turning to `Nc1cc(NCCc2cccnc2)c2ccc(-c3ccn[nH]3)cc2n1` [Compound 284], the IC50 in experiment [1] is 0.38 µM. The EC50 at human TLR7 and at human TLR8 was above 100 µM in each case.

`Nc1cc(NC[C@H]2CCCN2)c2ccc(-c3cc[nH]n3)cc2n1` [Compound 285]: the IC50 in experiment [1] is 1.56 µM. Also, the EC50 on human TLR7 and at human TLR8 was above 100 µM throughout.

On to `Nc1cc(N2CCCNCC2)c2ccc(-c3cc[nH]n3)cc2n1` [Compound 286], for which, in experiment [1], the IC50 is 13.1 µM. Also, the concentration giving a half-maximal response (EC50) on human TLR7 and at human TLR8 was above 100 µM throughout.

Regarding `Nc1cc(NC[C@@H](O)CO)c2ccc(-c3ccn[nH]3)cc2n1` [Compound 287], in experiment [1], the IC50 came to 0.7 µM. The concentration giving a half-maximal response (EC50) on human TLR7 and on human TLR8 was above 100 µM throughout.

On to `Nc1cc(N[C@H]2CCCOC2)c2ccc(-c3ccn[nH]3)cc2n1` [Compound 288], for which the IC50 in experiment [1] amounted to 0.39 µM. In addition, the concentration giving a half-maximal response (EC50) on human TLR7 and on human TLR8 was above 100 µM each time.

With `Nc1cc(N[C@@H]2CCCOC2)c2ccc(-c3ccn[nH]3)cc2n1` [Compound 289], the IC50 in experiment [1] worked out at 0.85 µM. The EC50 at human TLR7 and at human TLR8 was above 100 µM throughout.

As to `CCO[C@H]1COC[C@@H]1Nc1cc(N)nc2cc(-c3ccn[nH]3)ccc12` [Compound 291], the IC50 in experiment [1] amounted to 1.67 µM. The EC50 on human TLR7 and at human TLR8 was above 100 µM in each case.

Regarding `Nc1cc(NCc2cc[nH]n2)c2ccc(-n3cccn3)cc2n1` [Compound 292], the IC50 in experiment [1] came to 0.34 µM. Further, the EC50 on human TLR7 and on human TLR8 was above 100 µM each time.

As to `Nc1cc(NCCc2ccccn2)c2ccc(-n3cccn3)cc2n1` [Compound 293], the IC50 in experiment [1] stood at 0.87 µM. Also, the EC50 on human TLR7 and at human TLR8 was above 100 µM in each case.

On to `Nc1cc(NCc2nc[nH]n2)c2ccc(-n3cccn3)cc2n1` [Compound 294], for which the IC50 in experiment [1] was 0.21 µM. The EC50 on human TLR7 and on human TLR8 was above 100 µM each time.

As to `Nc1cc(N[C@@H]2CCC[C@@H]2O)c2ccc(-n3cccn3)cc2n1` [Compound 295], in experiment [1], the IC50 came out at 0.31 µM. Besides, the EC50 at human TLR7 and on human TLR8 was above 100 µM each time.

Consider `Nc1cc(NCCO)c2ccc(-n3cccn3)cc2n1` [Compound 296], for which the IC50 in experiment [1] was 0.56 µM. Further, the EC50 at human TLR7 and at human TLR8 was above 100 µM in each case.

In the case of `Nc1cc(NCCc2nccs2)c2ccc(-n3cccn3)cc2n1` [Compound 297], the IC50 in experiment [1] worked out at 0.57 µM. The EC50 at human TLR7 and on human TLR8 was above 100 µM throughout.

As to `Nc1cc(NCc2ncc[nH]2)c2ccc(-n3cccn3)cc2n1` [Compound 298], in experiment [1], the IC50 came out at 0.15 µM. In addition, the concentration giving a half-maximal response (EC50) on human TLR7 and at human TLR8 was above 100 µM in each case.

In the case of `Nc1cc(NCC(F)(F)c2ccccn2)c2ccc(-n3cccn3)cc2n1` [Compound 299], the IC50 in experiment [1] came out at 0.65 µM. Besides, the EC50 on human TLR7 and at human TLR8 was above 100 µM throughout.

In the case of `Nc1cc(NCc2ccccn2)c2ccc(-n3cccn3)cc2n1` [Compound 300], in experiment [1], the IC50 stood at 0.54 µM. Also, the EC50 at human TLR7 and at human TLR8 was above 100 µM each time.

Take `CC(C)(O)CCNc1cc(N)nc2cc(-n3cccn3)ccc12` [Compound 301]: the IC50 in experiment [1] came out at 1.01 µM. The EC50 on human TLR7 and on human TLR8 was above 100 µM throughout.

In the case of `Nc1cc(NCCn2cccn2)c2ccc(-n3cccn3)cc2n1` [Compound 302], in experiment [1], the IC50 was found to be 0.05 µM. For the same molecule, the EC50 at human TLR7 and at human TLR8 was above 100 µM each time.

Take `Cc1nc(CNc2cc(N)nc3cc(-n4cccn4)ccc23)cs1` [Compound 303]: the IC50 in experiment [1] turned out to be 0.14 µM. Also, the EC50 on human TLR7 and at human TLR8 was above 100 µM in each case.

Consider `Nc1cc(N[C@H]2CCC[C@H]2O)c2ccc(-n3cccn3)cc2n1` [Compound 304], for which, in experiment [1], the IC50 is 0.37 µM. For the same molecule, the EC50 at human TLR7 and at human TLR8 was above 100 µM in each case.

`CS(=O)(=O)CCNc1cc(N)nc2cc(-n3cccn3)ccc12` [Compound 305]: the IC50 in experiment [1] turned out to be 0.64 µM. The EC50 on human TLR7 and on human TLR8 was above 100 µM each time.

`CC(=O)NCCNc1cc(N)nc2cc(-n3cccn3)ccc12` [Compound 306]: the IC50 in experiment [1] worked out at 1.1 µM. Further, the EC50 at human TLR7 and on human TLR8 was above 100 µM each time.

Turning to `Nc1cc(NCc2cnc[nH]2)c2ccc(-n3cccn3)cc2n1` [Compound 307], in experiment [1], the IC50 is 0.11 µM. The EC50 on human TLR7 and on human TLR8 was above 100 µM in each case.

As for `Nc1cc(NCCn2cncn2)c2ccc(-n3cccn3)cc2n1` [Compound 308], in experiment [1], the IC50 worked out at 0.52 µM. Moreover, the EC50 on human TLR7 and on human TLR8 was above 100 µM each time.

For `Nc1cc(NCc2cccnn2)c2ccc(-n3cccn3)cc2n1` [Compound 309], in experiment [1], the 50% inhibitory concentration (IC50) stood at 0.42 µM. Moreover, the EC50 at human TLR7 and at human TLR8 was above 100 µM each time.

As to `CC(C)(CO)COc1cc(N)nc2cc(-c3ccn[nH]3)ccc12` [Compound 310], in experiment [1], the IC50 is 0.11 µM. The EC50 on human TLR7 and at human TLR8 was above 100 µM in each case.

Consider `Cn1nncc1COc1cc(N)nc2cc(-c3ccn[nH]3)ccc12` [Compound 311], for which the 50% inhibitory concentration (IC50) in experiment [1] was 3.13 µM. Also, the EC50 at human TLR7 and at human TLR8 was above 100 µM in each case.

In the case of `Cn1ncnc1COc1cc(N)nc2cc(-c3ccn[nH]3)ccc12` [Compound 312], the half-maximal inhibitory concentration (IC50) in experiment [1] worked out at 1.59 µM. Moreover, the EC50 on human TLR7 and on human TLR8 was above 100 µM each time.

As to `Nc1cc(OCc2ccn[nH]2)c2ccc(-c3ccn[nH]3)cc2n1` [Compound 313, 4-((1H-pyrazol-5-yl)methoxy)-7-(1H-pyrazol-5-yl)quinolin-2-amine], the IC50 in experiment [1] turned out to be 0.11 µM. Also, the EC50 on human TLR7 and at human TLR8 was above 100 µM each time.

`Nc1ccc2ccc(-c3ccn[nH]3)cc2n1` [Compound 314, 7-(1H-pyrazol-5-yl)quinolin-2-amine]: the 50% inhibitory concentration (IC50) in experiment [1] was 1.8 µM. Moreover, the EC50 on human TLR7 and on human TLR8 was above 100 µM each time.
